Reference: patent US20230157952A1, “METHOD FOR IMPROVING THE STABILITY OF A PHARMACEUTICAL COMPOSITION COMPRISING A HIGH PENETRATION DRUG, AND THE PHARMACEUTICAL COMPOSITION OBTAINED THEREFROM” (Techfields Inc., priority 2020, published 2023)

Assay: Effect of solvent on the stability of the solution (purity at various pH values and temperature)
Type: physicochemical
Conditions: 7% solution

SMILES: CCN(CC)CCOC(=O)c1ccccc1OC(C)=O.Cl
- Purity(%) at day 0 (solvent 15% ethanol, pH 1.0, day 0): 99.1 ± 0.2%
- Purity(%) at day 14 (5° C.) (solvent 15% ethanol, pH 1.0, day 14, 5° C.): 92.1 ± 0.3%
- Purity(%) at day 14 (25° C.) (solvent 15% ethanol, pH 1.0, day 14, 25° C.): 62.7 ± 0.3%
- Purity(%) at day 14 (40° C.) (solvent 15% ethanol, pH 1.0, day 14, 40° C.): 0%
- Purity (%) at day 14 (60° C.) (solvent 15% ethanol, pH 1.0, day 14, 60° C.): 0%
- Purity(%) at day 0 (solvent 15% ethanol, pH 2.0, day 0): 99.4 ± 0.2%
- Purity(%) at day 14 (5° C.) (solvent 15% ethanol, pH 2.0, day 14, 5° C.): 96.5 ± 0.2%
- Purity(%) at day 14 (25° C.) (solvent 15% ethanol, pH 2.0, day 14, 25° C.): 83.8 ± 0.3%
- Purity(%) at day 14 (40° C.) (solvent 15% ethanol, pH 2.0, day 14, 40° C.): 0%
- Purity (%) at day 14 (60° C.) (solvent 15% ethanol, pH 2.0, day 14, 60° C.): 0%
- Purity(%) at day 0 (solvent 15% ethanol, pH 3.0, day 0): 99.5 ± 0.1%
- Purity(%) at day 14 (25° C.) (solvent 15% ethanol, pH 3.0, day 14, 25° C.): 88.8 ± 0.2%
- Purity(%) at day 14 (40° C.) (solvent 15% ethanol, pH 3.0, day 14, 40° C.): 2.9 ± 0.3%
- Purity (%) at day 14 (60° C.) (solvent 15% ethanol, pH 3.0, day 14, 60° C.): 0%
- Purity(%) at day 0 (solvent 15% ethanol, pH 3.7, day 0): 99.6 ± 0.1%
- Purity(%) at day 14 (25° C.) (solvent 15% ethanol, pH 3.7, day 14, 25° C.): 96.2 ± 0.3%
- Purity(%) at day 14 (40° C.) (solvent 15% ethanol, pH 3.7, day 14, 40° C.): 15.2 ± 0.3%
- Purity (%) at day 14 (60° C.) (solvent 15% ethanol, pH 3.7, day 14, 60° C.): 0%
- Purity(%) at day 0 (solvent 15% ethanol, pH 4.0, day 0): 99.7 ± 0.2%
- Purity(%) at day 14 (25° C.) (solvent 15% ethanol, pH 4.0, day 14, 25° C.): 96.7 ± 0.2%
- Purity(%) at day 14 (40° C.) (solvent 15% ethanol, pH 4.0, day 14, 40° C.): 15.7 ± 0.3%
- Purity (%) at day 14 (60° C.) (solvent 15% ethanol, pH 4.0, day 14, 60° C.): 0%
- Purity(%) at day 0 (solvent 15% ethanol, pH 4.3, day 0): 99.7 ± 0.1%
- Purity(%) at day 14 (25° C.) (solvent 15% ethanol, pH 4.3, day 14, 25° C.): 96.7 ± 0.1%
- Purity(%) at day 14 (40° C.) (solvent 15% ethanol, pH 4.3, day 14, 40° C.): 13.6 ± 0.3%
- Purity (%) at day 14 (60° C.) (solvent 15% ethanol, pH 4.3, day 14, 60° C.): 0%
- Purity(%) at day 0 (solvent 15% ethanol, pH 4.6, day 0): 99.6 ± 0.2%
- Purity(%) at day 14 (25° C.) (solvent 15% ethanol, pH 4.6, day 14, 25° C.): 96.5 ± 0.2%
- Purity(%) at day 14 (40° C.) (solvent 15% ethanol, pH 4.6, day 14, 40° C.): 4.1 ± 0.3%
- Purity (%) at day 14 (60° C.) (solvent 15% ethanol, pH 4.6, day 14, 60° C.): 0%
- Purity(%) at day 0 (solvent 15% ethanol, pH 5.0, day 0): 99.5 ± 0.2%
- Purity(%) at day 14 (5° C.) (solvent 15% ethanol, pH 5.0, day 14, 5° C.): 97.4 ± 0.2%
- Purity(%) at day 14 (25° C.) (solvent 15% ethanol, pH 5.0, day 14, 25° C.): 92.9 ± 0.2%
- Purity(%) at day 14 (40° C.) (solvent 15% ethanol, pH 5.0, day 14, 40° C.): 1.3 ± 0.3%
- Purity (%) at day 14 (60° C.) (solvent 15% ethanol, pH 5.0, day 14, 60° C.): 0%
- Purity(%) at day 0 (solvent 15% ethanol, pH 6.0, day 0): 99.4 ± 0.2%
- Purity(%) at day 14 (5° C.) (solvent 15% ethanol, pH 6.0, day 14, 5° C.): 92.3 ± 0.3%
- Purity(%) at day 14 (25° C.) (solvent 15% ethanol, pH 6.0, day 14, 25° C.): 84.9 ± 0.3%
- Purity(%) at day 14 (40° C.) (solvent 15% ethanol, pH 6.0, day 14, 40° C.): 0%
- Purity (%) at day 14 (60° C.) (solvent 15% ethanol, pH 6.0, day 14, 60° C.): 0%
- Purity(%) at day 0 (solvent 15% ethanol, pH 7.0, day 0): 99.2 ± 0.1%
- Purity(%) at day 14 (5° C.) (solvent 15% ethanol, pH 7.0, day 14, 5° C.): 87.9 ± 0.3%
- Purity(%) at day 14 (25° C.) (solvent 15% ethanol, pH 7.0, day 14, 25° C.): 60.2 ± 0.3%
- Purity(%) at day 14 (40° C.) (solvent 15% ethanol, pH 7.0, day 14, 40° C.): 0%
- Purity (%) at day 14 (60° C.) (solvent 15% ethanol, pH 7.0, day 14, 60° C.): 0%
- Purity(%) at day 0 (solvent 15% ethanol, pH 8.0, day 0): 99.1 ± 0.2%
- Purity(%) at day 14 (5° C.) (solvent 15% ethanol, pH 8.0, day 14, 5° C.): 58.7 ± 0.4%
- Purity(%) at day 14 (25° C.) (solvent 15% ethanol, pH 8.0, day 14, 25° C.): 22.7 ± 0.3%
- Purity(%) at day 14 (40° C.) (solvent 15% ethanol, pH 8.0, day 14, 40° C.): 0%
- Purity (%) at day 14 (60° C.) (solvent 15% ethanol, pH 8.0, day 14, 60° C.): 0%
- Purity(%) at day 0 (solvent 25% ethanol, pH 1.0, day 0): 99.1 ± 0.3%
- Purity(%) at day 14 (5° C.) (solvent 25% ethanol, pH 1.0, day 14, 5° C.): 92.3 ± 0.3%
- Purity(%) at day 14 (25° C.) (solvent 25% ethanol, pH 1.0, day 14, 25° C.): 63.5 ± 0.3%
- Purity(%) at day 14 (40° C.) (solvent 25% ethanol, pH 1.0, day 14, 40° C.): 0%
- Purity (%) at day 14 (60° C.) (solvent 25% ethanol, pH 1.0, day 14, 60° C.): 0%
- Purity(%) at day 0 (solvent 25% ethanol, pH 2.0, day 0): 99.4 ± 0.3%
- Purity(%) at day 14 (5° C.) (solvent 25% ethanol, pH 2.0, day 14, 5° C.): 96.9 ± 0.3%
- Purity(%) at day 14 (25° C.) (solvent 25% ethanol, pH 2.0, day 14, 25° C.): 84.2 ± 0.3%
- Purity(%) at day 14 (40° C.) (solvent 25% ethanol, pH 2.0, day 14, 40° C.): 0%
- Purity (%) at day 14 (60° C.) (solvent 25% ethanol, pH 2.0, day 14, 60° C.): 0%
- Purity(%) at day 0 (solvent 25% ethanol, pH 3.0, day 0): 99.5 ± 0.2%
- Purity(%) at day 14 (25° C.) (solvent 25% ethanol, pH 3.0, day 14, 25° C.): 88.9 ± 0.2%
- Purity(%) at day 14 (40° C.) (solvent 25% ethanol, pH 3.0, day 14, 40° C.): 2.9 ± 0.2%
- Purity (%) at day 14 (60° C.) (solvent 25% ethanol, pH 3.0, day 14, 60° C.): 0%
- Purity(%) at day 0 (solvent 25% ethanol, pH 3.7, day 0): 99.6 ± 0.1%
- Purity(%) at day 14 (5° C.) (solvent 25% ethanol, pH 3.7, day 14, 5° C.): 99.1 ± 0.2%
- Purity(%) at day 14 (25° C.) (solvent 25% ethanol, pH 3.7, day 14, 25° C.): 96.3 ± 0.2%
- Purity(%) at day 14 (40° C.) (solvent 25% ethanol, pH 3.7, day 14, 40° C.): 15.1 ± 0.3%
- Purity (%) at day 14 (60° C.) (solvent 25% ethanol, pH 3.7, day 14, 60° C.): 0%
- Purity(%) at day 0 (solvent 25% ethanol, pH 4.0, day 0): 99.8 ± 0.1%
- Purity(%) at day 14 (5° C.) (solvent 25% ethanol, pH 4.0, day 14, 5° C.): 99.1 ± 0.1%
- Purity(%) at day 14 (25° C.) (solvent 25% ethanol, pH 4.0, day 14, 25° C.): 96.9 ± 0.1%
- Purity(%) at day 14 (40° C.) (solvent 25% ethanol, pH 4.0, day 14, 40° C.): 15.2 ± 0.3%
- Purity (%) at day 14 (60° C.) (solvent 25% ethanol, pH 4.0, day 14, 60° C.): 0%
- Purity(%) at day 0 (solvent 25% ethanol, pH 4.3, day 0): 99.7 ± 0.2%
- Purity(%) at day 14 (5° C.) (solvent 25% ethanol, pH 4.3, day 14, 5° C.): 99.1 ± 0.2%
- Purity(%) at day 14 (25° C.) (solvent 25% ethanol, pH 4.3, day 14, 25° C.): 96.8 ± 0.2%
- Purity(%) at day 14 (40° C.) (solvent 25% ethanol, pH 4.3, day 14, 40° C.): 13.8 ± 0.3%
- Purity (%) at day 14 (60° C.) (solvent 25% ethanol, pH 4.3, day 14, 60° C.): 0%
- Purity(%) at day 0 (solvent 25% ethanol, pH 4.6, day 0): 99.7 ± 0.2%
- Purity(%) at day 14 (25° C.) (solvent 25% ethanol, pH 4.6, day 14, 25° C.): 96.5 ± 0.2%
- Purity(%) at day 14 (40° C.) (solvent 25% ethanol, pH 4.6, day 14, 40° C.): 4.2 ± 0.1%
- Purity (%) at day 14 (60° C.) (solvent 25% ethanol, pH 4.6, day 14, 60° C.): 0%
- Purity(%) at day 0 (solvent 25% ethanol, pH 5.0, day 0): 99.6 ± 0.2%
- Purity(%) at day 14 (25° C.) (solvent 25% ethanol, pH 5.0, day 14, 25° C.): 92.8 ± 0.2%
- Purity(%) at day 14 (40° C.) (solvent 25% ethanol, pH 5.0, day 14, 40° C.): 1.6 ± 0.1%
- Purity (%) at day 14 (60° C.) (solvent 25% ethanol, pH 5.0, day 14, 60° C.): 0%
- Purity(%) at day 0 (solvent 25% ethanol, pH 6.0, day 0): 99.5 ± 0.3%
- Purity(%) at day 14 (5° C.) (solvent 25% ethanol, pH 6.0, day 14, 5° C.): 92.7 ± 0.2%
- Purity(%) at day 14 (25° C.) (solvent 25% ethanol, pH 6.0, day 14, 25° C.): 85.0 ± 0.3%
- Purity(%) at day 14 (40° C.) (solvent 25% ethanol, pH 6.0, day 14, 40° C.): 0%
- Purity (%) at day 14 (60° C.) (solvent 25% ethanol, pH 6.0, day 14, 60° C.): 0%
- Purity(%) at day 0 (solvent 25% ethanol, pH 7.0, day 0): 99.4 ± 0.3%
- Purity(%) at day 14 (5° C.) (solvent 25% ethanol, pH 7.0, day 14, 5° C.): 88.0 ± 0.3%
- Purity(%) at day 14 (25° C.) (solvent 25% ethanol, pH 7.0, day 14, 25° C.): 61.2 ± 0.3%
- Purity(%) at day 14 (40° C.) (solvent 25% ethanol, pH 7.0, day 14, 40° C.): 0%
- Purity (%) at day 14 (60° C.) (solvent 25% ethanol, pH 7.0, day 14, 60° C.): 0%
- Purity(%) at day 0 (solvent 25% ethanol, pH 8.0, day 0): 99.1 ± 0.3%
- Purity(%) at day 14 (5° C.) (solvent 25% ethanol, pH 8.0, day 14, 5° C.): 59.8 ± 0.3%
- Purity(%) at day 14 (25° C.) (solvent 25% ethanol, pH 8.0, day 14, 25° C.): 23.1 ± 0.3%
- Purity(%) at day 14 (40° C.) (solvent 25% ethanol, pH 8.0, day 14, 40° C.): 0%
